Experimental data taken from BindingDB's records for doi:10.1021/jm00123a006 (University of Pennsylvania, 1989).

Molecular target: 5-HT1A receptor (Bos taurus)
Assay: In vitro inhibition of [3H]5-HT (2 nM) binding to 5-hydroxytryptamine 1A receptor from bovine hippocampus

IC50: 35 nM
Structure (SMILES): [N-]=[N+]=Nc1ccc(CCN2CCN(c3cccc(C(F)(F)F)c3)CC2)cc1I
